Measurements taken from US11447504B2, “Macrocyclic chlorine substituted indole derivatives” (Bayer Aktiengesellschaft, priority 2017, dated 2022).
Where a name gives a salt, the structure may show the parent alone. Read-outs that look alike come from different tables or passages of the source.

How the values were obtained:
[1] = biological target: T1, MCL-1 (Homo sapiens (Human), UniProt Q07820, K194A/K197A/R201A); test: Protein-protein interaction assay MCL-1/Noxa BH3 peptide (MCL-1 Assay, TR-FRET); type: binding; conditions: read-out: MCL-1 Assay IC50 (median)
[2] = test system: HMC-1-8; test: Antiproliferation assay 7, HMC-1-8; type: cell-based; conditions: HMC-1-8 cells, 72 hours, CellTiter-Glo; read-out: Antiproli HMC-1-8 IC50 median
How it was run: (§1)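 Cells were treated with compound for 72 hours at 37° C in a humidified incubator, and viability was then read by CellTiter-Glo luminescence. A parallel reference plate was read at time zero (day 0) in the same way for baseline determination.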

[3] = test system: SUDHL5; test: Antiproliferation assay 7, SUDHL5; type: cell-based; conditions: SUDHL5 cells, 72 hours, CellTiter-Glo; read-out: Antiproli SUDHL5 IC50 (median)
How it was run: as §1

[4] = biological target: SUDHL10; test: Induction of caspase-3/7 activity (Assay 4), SUDHL10; type: cell-based; conditions: SUDHL10 cells, 3 hours, Caspase-Glo 3/7; read-out: Caspase SUDHL10 EC50 (median)
How it was run: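 SUDHL10 DLBCL cells treated with compounds for 3 hours at 37 °C in a humidified incubator. Caspase-3/7 activity read with Caspase-Glo 3/7 luminescent reagent. Medium-only background subtracted from all values.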

[5] = biological target: SUDHL5; test: Induction of caspase-3/7 activity (Assay 4), SUDHL5; type: cell-based; conditions: SUDHL5 cells, 3 hours, Caspase-Glo 3/7; read-out: Caspase SUDHL5 EC50 (median)
How it was run: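 DLBCL cells treated with compounds for 3 hours at 37° C. Caspase-3/7 activity measured by Caspase-Glo 3/7 luminescence, with medium-only background subtracted.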

[6] = test system: SUDHL5
Protocol: (§8) Assay 6 Induction of Cytotoxicity Upon Treatment of Cells with Selected Compounds
(§9) Therefore, cytotoxicity assays were run in parallel in SUDHL5 and SUDHL10 cells.
(§10) The different cell lines were plated in culture medium (RPMI 1640 [GIBCO #22400-089]supplemented with 10% Fetal Bovine Serum) at a density of 3,300 cells in 30 μL/well in a sterile, solid black, flat bottom, polystyrene, TC-treated 384-well microplate (Corning #3571) using Multidrop Combi Reagent Dispenser. As a control, medium without cells was also added to the plate. Cells were incubated in a humidified incubator at 37° C. overnight. […] Rim wells were excluded. The cells were incubated for 5 hours in a humidified incubator at 37° C. After this incubation, 30 μL of CellTiter-Glo® Luminescent Cell Viability reagent (Promega, G7573) was added to each well using the Multidrop Combi Reagent Dispenser, followed by 15 minutes incubation on a shaker at room temperature. Finally, luminescence was read at 0.1 ms, with a gain of 3000 using the PHERAstar FS microplate reader (BMG Labtech).

[7] = biological target: BCL-2 (Homo sapiens (Human), UniProt P10415); test: Protein-protein interaction assay BCL-2/Bad BH3 peptide (BCL-2 Assay, TR-FRET); type: binding; conditions: read-out: BCL-2 Assay IC50 (median)
Protocol: The dose-dependent inhibition by the compounds described in this invention of the interaction between BCL-2 and the BH3 domain of Bad (both human) was determined using a steady state binding competition assay with time-resolved fluorescence energy transfer (TR-FRET) readout.
For that, 100-fold concentrated DMSO solutions were prepared by serial dilutions (1:3.4) of a 2 mM stock solution in a clear, 384-well microtiter plate (Greiner Bio-One, Frickenhausen, Germany). From there, 50 nl were transferred in a dark test plate (Greiner Bio-One, Frickenhausen, Germany). […] This was followed by a 10-minute incubation step at 22° C. for pre-equilibration of the putative complex between His-BCL-2 and the compounds.
The mixture was incubated in the dark for one hour at 22° C. and then overnight at 4° C.
(§2) The resulting data (ratio) were normalized, taking 0% inhibition as the mean value of control measurements (usually 32 data points) where all reagents were included. In this case 50 nl DMSO were used instead of compounds. […] IC50 values were determined by regression analysis based on a 4 parameter equation (minimum, maximum, IC50, Hill; Y=Max+(Min−Max)/(1+(X/IC50)^Hill) using the Screener Software (Genedata).

[8] = test system: AMO-1; test: Antiproliferation assay 7, AMO-1; type: cell-based; conditions: AMO-1 cells, 72 hours, CellTiter-Glo; read-out: Antiproli AMO-1 IC50 median
How it was run: as §1

[9] = test system: SUDHL10
Protocol: as §8, §9, §10

[10] = biological target: BCL-XL (Homo sapiens (Human), UniProt Q07817); test: Protein-protein interaction assay BCL-XL/Bad BH3 peptide (BCL-XL Assay, TR-FRET); type: binding; conditions: read-out: BCL-XL Assay IC50 (median)
Protocol: Assay 2 Protein-Protein Interaction Assay: BCL-XL/Bad BH3 Peptide (BCL-XL Assay)
The dose-dependent inhibition by the compounds described in this invention of the interaction between BCL-XL and the BH3 domain of Bad (both human) was determined using a steady state binding competition assay with time-resolved fluorescence energy transfer (TR-FRET) readout.
For that, 100-fold concentrated DMSO solutions were prepared by serial dilutions (1:3.4) of a 2 mM stock solution in a clear, 384-well microtiter plate (Greiner Bio-One, Frickenhausen, Germany). From there, 50 nl were transferred in a dark test plate (Greiner Bio-One, Frickenhausen, Germany). […] This was followed by a 10-minute incubation step at 22° C. for pre-equilibration of the putative complex between His-BCL-XL and the compounds.
The mixture was incubated in the dark for one hour at 22° C. and then overnight at 4° C. The formation of BCL-XL/Bad complexes was determined by measuring the resonance energy transfer of the anti-His- Eu-cryptate antibody to the streptavidin-XL665 present in the reaction.
as §2

[11] = test system: SUDHL10; test: Antiproliferation assay 7, SUDHL10; type: cell-based; conditions: SUDHL10 cells, 72 hours, CellTiter-Glo; read-out: Antiproli SUDHL10 IC50 (median)
Protocol: (§3) Assessment of the Anti-Proliferative Effect of Compounds in Different Cell Lines
(§4) The impact of compounds on the proliferation of different cell lines was assessed using the CellTiter-Glo® Luminescent Cell Viability reagent from Promega (G7573).
(§5) In parallel, cells were plated in a reference (day 0) plate for time zero determination.
(§6) Rim wells were excluded. The cells were incubated for 72 hours in a humidified incubator at 37° C. The day 0 plate was measured by adding 30 μL/well of CTG solution (CellTiter-Glo® Luminescent Cell Viability reagent, Promega G7573) to time zero wells in the reference plate followed by a 10 minutes incubation and luminescence reading at 0.1 ms. using the PHERAstar FS microplate reader (BMG Labtech).
(§7) After 72 hours incubation, the treated plates were measured in the same way as the day 0 plate mentioned above.

[12] = test system: MV-4-11; test: Antiproliferation assay 7, MV-4-11; type: cell-based; conditions: MV-4-11 cells, 72 hours, CellTiter-Glo; read-out: Antiproli MV-4-11 IC50 median
How it was run: as §1

[13] = test system: SUDHL10; test: Induction of cytotoxicity (Assay 6), SUDHL10; conditions: read-out: Cytotox SUDHL10 IC50 (median); SUDHL10 cells, 5 hours, CellTiter-Glo
Protocol: as §8, §9, §10

[14] = test system: NCI-H23; test: Antiproliferation assay 7, NCI-H23; type: cell-based; conditions: NCI-H23 cells, 72 hours, CellTiter-Glo; read-out: Antiproli NCI-H23 IC50 median
Protocol: as §3, §4, §5, §6, §7

[15] = test system: A2058; test: Antiproliferation assay 7, A2058; type: cell-based; conditions: A2058 cells, 72 hours, CellTiter-Glo; read-out: Antiproli A2058 IC50 median
Protocol: as §3, §4, §5, §6, §7

[16] = test system: SUDHL5; test: Induction of cytotoxicity (Assay 6), SUDHL5; conditions: read-out: Cytotox SUDHL5 IC50 (median); SUDHL5 cells, 5 hours, CellTiter-Glo
Protocol: as §8, §9, §10

[17] = test system: SK-BR-3; test: Antiproliferation assay 7, SK-BR-3; type: cell-based; conditions: SK-BR-3 cells, 72 hours, CellTiter-Glo; read-out: Antiproli SK-BR-3 IC50 median
Protocol: as §3, §4, §5, §6, §7

[18] = biological target: T1, MCL-1; test: Protein-compound interaction assay (SPR assay 8); type: binding; conditions: immobilized MBP-MCL-1, 25° C.
From the text: Assay 8 Protein-Compound Interaction Assay (SPR Assay)
The ability of the compounds described in this invention to bind to MCL-1 may be determined using surface plasmon resonance (SPR). This allows for the quantification of binding in terms of the equilibrium dissociation constant (KD [M]), as well as association and dissociation rate constants (kon [1/M 1/s] and koff [1/s], respectively). The measurements may be performed using Biacore® T200 or Biacore® S200 instruments (GE Healthcare).
MBP-MCL-1 was diluted in 1×PBS-P+ (GE Healthcare) and injected on the activated chip surface. Subsequently, a solution of 1 M ethanolamine-HCl (GE Healthcare) was injected to block unreacted groups, resulting in approximately 400-2500 response units (RU) of immobilized protein. A reference surface was generated by treatment with NHS-EDC and ethanolamine-HCl.
The double-referenced sensorgrams were fit to a simple reversible Langmuir 1:1 reaction mechanism as implemented in the Biacore® T200 and S200 evaluation software (T200 evaluation software version 2.0 and S200 evaluation software version 1.0, GE Healthcare).

T1 sequence (Q07820 whole entry K194A/K197A/R201A, looked up): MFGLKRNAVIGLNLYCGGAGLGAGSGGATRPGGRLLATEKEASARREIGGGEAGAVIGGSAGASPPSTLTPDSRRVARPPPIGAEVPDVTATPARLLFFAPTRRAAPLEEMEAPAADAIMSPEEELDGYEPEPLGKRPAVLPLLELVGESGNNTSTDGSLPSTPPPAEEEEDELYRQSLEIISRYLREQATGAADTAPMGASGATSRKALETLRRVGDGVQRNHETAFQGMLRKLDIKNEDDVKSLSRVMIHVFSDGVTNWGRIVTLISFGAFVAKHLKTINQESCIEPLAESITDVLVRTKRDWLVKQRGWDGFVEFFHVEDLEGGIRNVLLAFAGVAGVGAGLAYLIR
Chain of BCL-2 (P10415 other isoform, or with tags, fused parts or gaps): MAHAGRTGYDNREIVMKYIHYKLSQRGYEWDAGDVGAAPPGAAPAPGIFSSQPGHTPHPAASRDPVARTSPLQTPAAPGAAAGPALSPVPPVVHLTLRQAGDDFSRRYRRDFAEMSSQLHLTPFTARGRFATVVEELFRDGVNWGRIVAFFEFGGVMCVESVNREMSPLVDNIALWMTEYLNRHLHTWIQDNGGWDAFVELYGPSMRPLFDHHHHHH
Chain of BCL-XL (Q07817 other isoform, or with tags, fused parts or gaps): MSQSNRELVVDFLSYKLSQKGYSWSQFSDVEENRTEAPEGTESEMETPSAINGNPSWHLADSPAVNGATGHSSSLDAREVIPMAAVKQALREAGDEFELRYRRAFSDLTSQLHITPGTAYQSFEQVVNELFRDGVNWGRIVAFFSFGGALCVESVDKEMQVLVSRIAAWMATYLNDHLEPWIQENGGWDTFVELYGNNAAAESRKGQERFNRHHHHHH

| Molecule | IC50 [1] [nM] | IC50 [2] [µM] | IC50 [3] [nM] | EC50 [4] [nM] | EC50 [5] [nM] | IC50 [6] [nM] | IC50 [7] [µM] | IC50 [8] [nM] | IC50 [9] [nM] | IC50 [10] [µM] | IC50 [11] [µM] | IC50 [12] [nM] | IC50 [13] [nM] | IC50 [14] [nM] | IC50 [15] [µM] | IC50 [16] [nM] | IC50 [17] [nM] | koff (geo mean) [18] [s⁻¹] | kon (geo mean) [18] | Kd ([18]; read-out: KD (geo mean)) [nM] |
| --- | --- | --- | --- | --- | --- | --- | --- | --- | --- | --- | --- | --- | --- | --- | --- | --- | --- | --- | --- | --- |
| (rac)-4-chloro-12,12-difluoro-2,3-dimethyl-7-{3-[(naphthalen-1-yl)oxy]propyl}-2,10,11,12,13,15-hexahydropyrazolo[4′,3′:9,10][1,6]oxazacycloundecino[8,7,6-hi]indole-8-carboxylic Acid [Example 55] | 2.3 | 5.75 | 620 | 1500 | 510 | 840 | 18.8 | 1710 | 2000 | > 20 |  |  |  |  |  |  |  |  |  |  |
| Cc1nn(C)c2c1-c1cccc3c(CCCOc4cccc5ccccc45)c(C(=O)O)n(c13)CCCCN2Cc1ccccc1 [Example 69, (rac)-8-benzyl-9,11-dimethyl-1-[3-(1-naphthyloxy)propyl]-4,5,6,7,8,9-hexahydropyrazolo[4′,3′:4,5][1,6]diazecino[3,2,1-hi]indole-2-carboxylic Acid] | 350 |  | 14000 | 22000 | > 33000 | 21000 |  |  | 32000 |  | 6.3 |  |  |  |  |  |  |  |  |  |
| (rac)-4-chloro-14-(2,2-difluoroethyl)-3-ethyl-7-{3-[(6-fluoronaphthalen-1-yl)oxy]propyl}-2-methyl-10,11,12,13,14,15-hexahydro-2H-pyrazolo[3′,4′:8,9][1,6]diazacycloundecino[10,11,1-hi]indole-8-carboxylic Acid [Example 62] | 2.7 |  |  |  | 270 | 330 |  |  |  |  |  |  |  |  |  |  |  |  |  |  |
| Cc1c2c(nn1C)COCCCCn1c(C(=O)O)c(CCCOc3cccc4ccccc34)c3ccc(Cl)c-2c31 (single isomer, unassigned; enantiomer 1) [Example 26, 4-chloro-2,3-dimethyl-7-[3-(naphthalen-1-yloxy)propyl]-2,10,11,12,13,15-hexahydropyrazolo-[4′,3′:9,10][1,6]oxazacycloundecino[8,7,6-hi]indole-8-carboxylic acid-N-ethylethanamine Salt (Enantiomer 1)] |  | 2.89 | 580 | 410 | 350 |  |  | 996 |  |  |  | 1810 | 500 | 2320 | 14.9 | 460 | 3300 |  |  |  |
| 4-chloro-3-ethyl-1-[2-(morpholin-4-yl)ethyl]-7-[3-(naphthalen-1-yloxy)propyl]-1,10,11,12,13,15-hexahydropyrazolo[4′,3′:9,10][1,6]oxazacycloundecino[8,7,6-hi]indole-8-carboxylic acid-N-ethylethanamine Salt (Enantiomer 1) [Example 9] | 0.47 |  | 370 | 330 | 270 |  | > 20 | 874 |  | > 20 | 0.27 | 823 | 340 |  |  | 290 | 1080 | 0.0096 | 8.7E6 1/M 1/s | 1.1 |
| (rac)-4-chloro-3-ethyl-1-[2-(morpholin-4-yl)ethyl]-7-[3-(naphthalen-1-yloxy)propyl]-1,10,11,12,13,15-hexahydropyrazolo[4′,3′:9,10][1,6]oxazacycloundecino[8,7,6-hi]indole-8-carboxylic Acid [Example 8] | 0.89 |  | 470 | 360 | 290 | 350 |  | 1180 | 450 |  |  | 1100 |  |  |  |  | 3000 |  |  |  |
| Cc1nn(C)c2c1-c1cccc3c(CCCOc4cccc5ccccc45)c(C(=O)O)n(c13)CCCCN2 [Example 70, (rac)-9,11-dimethyl-1-[3-(1-naphthyloxy)propyl]-4,5,6,7,8,9-hexahydropyrazolo[4′,3′:4,5][1,6]diazecino[3,2,1-hi]indole-2-carboxylic Acid] | 43 |  | > 33000 | 29000 | > 33000 | > 33000 |  |  | > 33000 |  | 15 |  |  |  |  |  |  |  |  |  |
